Reference: patent US8858914B2 (Endocyte, Inc., priority 2002, dated 2014)

Tests used:
[1] = system: M109 tumor nodules; test: imaging of metastatic tumor nodules of M109 cell origin (ip or iv inoculation); type: in vivo, mouse
Source text: In order to test the ability of folate-fluorescein to facilitate detection of microscopic tumor nodules, metastatic tumors of M109 cell origin were induced by inoculation of cells either into the peritoneal cavity (ip) or femoral vein (iv) of the syngeneic mice. After allowing sufficient time for tumor growth, tumor loci were again imaged by intravenous administration of folate-fluorescein followed by laser excitation.

[2] = system: folate receptor-expressing tumor tissue
[3] = system: L1210 tumor nodules; test: imaging of metastatic L1210 lesions after iv inoculation; type: in vivo, mouse
Source text: To further explore the ability of folate-fluorescein to image small metastatic lesions, L1210 cells were also inoculated intravenously into syngeneic mice and the various anatomical regions were again imaged as above. Since L1210 cells are lymphocytic in origin and relatively small in size, they are capable of forming tumor nodules throughout the body after iv injection, rather than becoming entrapped primarily in the lung capillary network. […] Further, the animal's spleen was almost entirely filled with minute tumor loci (FIG. 9a) and was consequently enlarged to roughly twice its normal size. Tumor nodules were also found in muscle tissue near the shoulder (FIG. 9b) and in the brain, spinal cord, and along the pleura.

[4] = system: M109 and L1210 tumors; test: whole-tissue fluorescence imaging of tumors vs adjacent normal tissue after iv injection; type: in vivo, mouse; settings: M109 (Balb/c) and L1210 (DBA) tumors, 2 h after iv injection, argon laser 488 nm
Method: Whole-tissue fluorescent imaging is performed using the imaging system 110 shown in FIG. 2 including an argon laser 12 (Spectra-Physics, Mountain View, Calif.) operating at 488 nm with a total laser power of 200 mW reaching the 2 cm sample field of view 114. Fluorescence is detected by a colored CCD camera 116 such as a JAI CV-53200N manufactured by Edmund Industrial Optics, Barrington, N.J. with a sensing area of 768×494 pixels and a pixel size of […]. An f/5.6 152-457 mm 10× CCD zoom lens 118, also produced by Edmund Industrial Optics, Barrington, N.J., is used to collect fluorescence from the 2.0 cm×2.0 cm field of view 114. A band pass filter 120 with […] 80% T at 515-585 nm (Inter, Inc., Socorro, N.M.) is placed between the lens 118 and the CCD Camera 116 in order to reject laser light 20 and suppress tissue auto-fluorescence outside the fluorescein fluorescence band. The images are digitally acquired using SNAPPY software v. 4.0 manufactured by Play, Inc., Sacramento, Calif.
The light 20 of laser 12 is aimed via a plurality of mirrors 26 such that the light 20 passes through a diffusing lens 124 to illuminate the field of view 114 as shown in FIG. 2. […]
In fact, the differences in fluorescence intensity were readily apparent to the naked eye without the assistance of optical equipment as shown in the upper pictures of FIGS. 5a-c. […]

[5] = system: arthritic joints (folate receptor expressing macrophages); settings: rat paws
Source text: Targeting a photosensitizer to arthritic joints allow phototherapy to be applied to the arthritic joint while preventing toxicity to other tissues. […] One potential application of arthritis imaging is in the area of sport animal medicine. Race animals, such as dogs or horses, that have arthritis, could be diagnosed in an easy, inexpensive, and nonradioactive manner by using fluorescent imaging agents.

In the case of “folate-γ-fluorescein [folate-fluorescein]”, the “fluorescence of tumor metastases compared to adjacent nonmalignant tissue” value ([1]; intravenously inoculated mice, lungs) is reported as “all tumor metastases fluoresced intensely”, the “size of metastatic tumor nodules readily observable” value ([1]; lungs of intravenously inoculated mice, iv conjugate, laser excitation) is reported as “smaller than 0.5 mm” and the “fluorescence intensity of liver and muscle tissues, injected vs noninjected mice” value ([2]; liver and muscle tissues not expressing the folate receptor) is reported as “no difference in fluorescence intensity”. The “fluorescence of tumor tissue from injected mice relative to autofluorescence of noninjected controls” value ([2]; tumor tissue, 2 h after injection of 8.7 μg, laser excitation) was “approximately fivefold”, the “fluorescence of L1210 tumor nodules throughout the body” value ([3]; most tissues of the body, laser illumination) was “no nodules were identified that did not fluoresce” and the “detection of microscopic L1210 nodules in liver under laser illumination” value ([3]; under and top surface of the liver) was “clearly revealed under laser illumination”. For the same substance, the “fluorescence of tumors compared with adjacent normal tissues” value [4] was “significantly more fluorescent than adjacent normal tissues” and the “contrast between arthritic and non-arthritic tissues” value [5] was “discernable contrast”.
